Values after ≈ are worked out from the molar mass of the structure shown.
Assays:
[1] = tested on: Staphylococcus aureus ATCC 6738P; assay: Agar-plate disc-diffusion test; type: cell-based; conditions: compound suspended in water at 1 mg/ml, 7mm disc, 24-48 hours at 25-37° C.
[2] = tested on: Micrococcus luteus ATCC 9341; assay: Agar-plate disc-diffusion test; type: cell-based; conditions: 1 mg/ml, 7mm disc, 24-48 hours at 25-37° C.
[3] = tested on: Bacillus subtilis ATCC 6633; assay: Agar-plate disc-diffusion test; conditions: 1 mg/ml, 7mm disc
Experimental: ^a Compounds were suspended in water at a concentration of 1 mg/ml; a
7mm disc was dipped into the suspension and then placed on the agar
surface; incubation 24-48 hours at 25-37° C.

[4] = tested on: Staphylococcus aureus S13E; assay: Standard agar-dilution test (MIC); type: cell-based
Experimental: (§1) The results of the antibacterial testing of a representative compound of formula 1, using the standard agar-dilution test, are summarized in Table II. In Table II activity is measured by the minimal inhibitory concentration (MIC), i.e. the lowest concentration of compound which inhibits the growth of the microorganism.

[5] = tested on: Staphylococcus aureus V41; assay: Standard agar-dilution test (MIC); type: cell-based; conditions: Staphylococcus aureus V41, penicillin-resistant strain
Experimental: as §1

[6] = tested on: Staphylococcus aureus X1.1; assay: Standard agar-dilution test (MIC); type: cell-based
Experimental: as §1

[7] = tested on: Staphylococcus aureus X400; assay: Standard agar-dilution test (MIC); type: cell-based; conditions: Staphylococcus aureus X400, methicillin-resistant strain
Experimental: as §1

[8] = tested on: Staphylococcus epidermidis EPI1; assay: Standard agar-dilution test (MIC); type: cell-based
Experimental: as §1

[9] = tested on: Staphylococcus epidermidis EPI2; assay: Standard agar-dilution test (MIC); type: cell-based
Experimental: as §1

[10] = tested on: Streptococcus Group 9960; assay: Standard agar-dilution test (MIC); type: cell-based
Experimental: as §1

[11] = tested on: Streptococcus Group D X66; assay: Standard agar-dilution test (MIC); type: cell-based
Experimental: as §1

[12] = tested on: Streptococcus pyogenes C203; assay: Standard agar-dilution test (MIC); type: cell-based
Experimental: as §1

[13] = tested on: Staphylococcus aureus; assay: In vivo activity against experimental bacterial infection; conditions: mice, subcutaneous, two doses
Experimental: (§2) The representative A-21978C cyclic peptide of formula 1 has shown in vivo antimicrobial activity against experimental bacterial infections. When two doses of test compound were administered to mice in illustrative infections, the activity observed was measured as an ED50 value [effective dose in mg/kg to protect fifty percent of the test animals: See Warren Wick, et al., J. Bacteriol. 81, 233-235 (1961)].

[14] = tested on: Streptococcus pyogenes; assay: as above; conditions: mice, two doses
Experimental: as §2

[15] = B. subtilis ATCC 6633 grown on minimal nutrient agar
[16] = Bacillus subtilis ATCC 6633, 24-48 hours at 25-37° C.

Row | Compound | Size of Zone of Inhibition [1] [mm] | Size of Zone of Inhibition [2] [mm] | Size of Zone of Inhibition [3, 15] [mm] | Size of Zone of Inhibition [3, 16] [mm] | MIC Values [4] [µg/mL] | MIC Values [5] [µg/mL] | MIC Values [6] [µg/mL] | MIC Values [7] [µg/mL] | MIC Values [8] [µg/mL] | MIC Values [9] [µg/mL] | MIC Values [10] [µg/mL] | MIC Values [11] [µg/mL] | MIC Values [12] [µg/mL] | ED50 Values [13] [mg/kg × 2] | ED50 Values ([14]; oral) [mg/kg × 2] | ED50 Values ([14]; subcutaneous) [mg/kg × 2]
1 | NTrp -p-(n-Dodecyloxy)benzoyl-NOrn -t-BOC-A-21978C Nucleus [p-(n-dodecyloxy)benzoyl t-BOC] | 20 | 15 | 22 | 10 |  |  |  |  |  |  |  |  |  |  |  | 
2 | CCCCCCCCCCCCOc1ccc(C(=O)N[C@@H](Cc2c[nH]c3ccccc23)C(=O)N[C@H](CC(N)=O)C(=O)N[C@@H](CC(=O)O)C(=O)N[C@@H]2C(=O)NCC(=O)N[C@@H](CCCN)C(=O)N[C@@H](CC(=O)O)C(=O)N[C@H](C)C(=O)N[C@@H](CC(=O)O)C(=O)NCC(=O)N[C@H](CO)C(=O)N[C@@H]([C@H](C)CC(=O)O)C(=O)N[C@@H](CC(=O)c3ccccc3N)C(=O)O[C@@H]2C)cc1 [NTrp --p-(n-Dodecyloxy)benzoyl-A-21978C, NTrp -p-(n-dodecyloxy)benzoyl-A-21978C Nucleus] | 20 | 18 | 20 | 13 | 1 (≈ 0.57 µM) | 1 (≈ 0.57 µM) | 1 (≈ 0.57 µM) | 2 (≈ 1.14 µM) | 4 (≈ 2.28 µM) | 2 (≈ 1.14 µM) | 1 (≈ 0.57 µM) | 2 (≈ 1.14 µM) | 0.25 (≈ 0.142 µM) | 3.35 | > 200 | 0.31

— patent publication USRE32310E, “Derivatives of A-21978C cyclic peptides” (Eli Lilly and Company, priority 1985, dated 1986)
